Data from PubChem BioAssay AID1117319 (Southern Research Institute, 2015).
Records with an inconclusive call do not appear.

What follows are compounds tested against Virion infectivity factor (Human immunodeficiency virus type 1 group M subtype B (isolate BH10)) + Virion infectivity factor (Human immunodeficiency virus type 1 group M subtype B (isolate BRU/LAI)) + Virion infectivity factor (Human immunodeficiency virus type 1 group M subtype B (isolate PCV12)) + Virion infectivity factor (Human immunodeficiency virus type 1 group M subtype B (isolate HXB2)) + DNA dC->dU-editing enzyme APOBEC-3G (Homo sapiens) (UniProt P69720+P69721+P69722+P69723+Q9HC16) (assay: inhibitors of Vif binding to APOBEC3G peptide, primary screen, biochemical, TR-FRET, GST-Vif 1-94, biotin-A3G peptide, dose response retest (AID 1117319);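 also: Vif residues 1-94 fused to GST binding biotinylated APOBEC3G peptide 110-148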).

Compound	IC50
CCC1=NN2C(=N)/C(=C\c3ccc(SCc4ccco4)o3)C(=O)N=C2S1	10.4 µM
Cc1cccc(N(C(=O)Cn2nnc3ccccc32)C(C(=O)NCc2ccco2)c2ccncc2)c1C (centres undefined)	4.66 µM
CCOc1cccc(=O)c2c(C)n(C)c(C)c12	11.6 µM
O=C1CC(=O)N(Cc2ccco2)C(=S)N1	2.21 µM
O=C(O)C1Nc2c(C(=O)N3CCOCC3)cccc2C2C=CCC12 (centres undefined)	2.02 µM
Cc1cc2ccccc2n1CCNC(=O)C1CCCCC1	37.2 µM
Oc1ccc(N=Cc2ccc(OCc3ccccc3)cc2)cc1	2.11 µM
CCOC(=O)C1=C(O)/C(=C/c2ccc(CNC(=O)C(=O)Nc3ccc(C)cc3)o2)N=C1C	33.3 µM
Cc1oc(-c2ccc(Cl)cc2)cc1-c1nn2c(-c3ccoc3C)nnc2s1	1.04 µM
COC(Cc1nnc(SC)n1-c1ccc(Cl)cc1)OC	43 µM
CCOC(=O)c1nn(-c2ccc(Cl)cc2Cl)c(=N)c(C#N)c1C	12.7 µM
N#Cc1c(NC(=O)CSc2ncnc3sccc23)oc(-c2ccco2)c1-c1ccco1	0.95 µM
CCOC(=O)c1ccc2c(c1)C1C=CCC1C(C(=O)O)N2 (centres undefined)	1.25 µM
Nc1ccc(N2CCCCCC2)cc1	1.06 µM
Cc1cc(-c2nc3c4c5c(sc4[nH]c(=O)n3n2)CCC5)c(C)o1	0.69 µM
O=C(O)c1ccc2c(c1)[C@@H]1C=CC[C@@H]1[C@H](c1ccccn1)N2	1.05 µM
COc1cccc(C2C(C#N)=C(N)OC3=C2C(=O)CC(c2ccco2)C3)c1OCc1ccc(F)cc1 (centres undefined)	7.82 µM
CCC(=O)NC1=C(Cl)C(=O)C(NC(=O)CC)=C(Cl)C1=O	22.9 µM
CCOc1ccc2[nH]c(=O)c(CN(Cc3nnnn3Cc3ccco3)C3CCCCC3)cc2c1	4.82 µM
CC(=O)N1CCN(c2ccc(NCc3ccc(C)s3)cc2)CC1	3.13 µM
C=CCN=c1scc(C)n1/N=C/c1ccc(O)c(O)c1	15.4 µM
Nc1ccc2c(O)cc(S(=O)(=O)O)cc2c1	9.44 µM
CS(=O)(=O)c1ccc2c(c1)SC1=NC(=O)/C(=C/c3ccco3)C(=N)N12	6.32 µM

Compound	IC50
COC(=O)C(C)Sc1nnc(Cc2cc(=O)[nH]c(=O)[nH]2)n1-c1cc(C)ccc1C (centres undefined)	95.6 µM
CC1C=CC=CC=CC=CC=CC=CC=CC(OC2OC(C)C(O)C(N)C2O)CC2OC(O)(CC(O)CC(O)C(O)CCC(O)CC(O)CC(=O)OC(C)C(C)C1O)CC(O)C2C(=O)O (centres undefined)	0.87 µM
O=C(Nc1cc(Cl)ccn1)C1CCN(S(=O)(=O)c2cccs2)CC1	56.8 µM
Oc1ccc(/C=N/N2CCCCC2)c(O)c1O	19.2 µM
Cc1c(F)cccc1NC(=O)CCCCCC1NC(=O)NC1C (centres undefined)	0.78 µM
COc1cccc(C=Nc2cc(C(C)C)c(O)cc2C)c1O	34.2 µM
O=[N+]([O-])c1c(NCCO)cc(Sc2nc3ccccc3s2)c2nonc12	34.9 µM
Cc1cc(C(=O)NNC(=O)/C=C/c2ccco2)c(C)o1	13.3 µM
Oc1ccc(/C=C/c2cc(O)cc(O)c2)cc1	25.3 µM
COc1ccc(CN2C(=O)NC(=O)/C(=C/c3ccc([N+](=O)[O-])o3)C2=O)cc1	4.49 µM
CC(=O)Nc1ccc(S(=O)(=O)N2CCN(Cc3ccccn3)CC2)cc1	77.4 µM
FC(F)(F)c1cc(-c2ccco2)nc(NCc2cccnc2)n1	42.3 µM
Cc1cccc(C)c1NC(=O)CSc1nnc(-c2ccco2)c(-c2ccco2)n1	2.05 µM
Cc1ccc(-n2c(-c3cc(-c4ccco4)[nH]n3)n[nH]c2=S)c(Br)c1	6.39 µM
CCCNC1=C(C)C(=O)C2=C(C1=O)C(COC(N)=O)[C@]1(OC)C3NC3CN21 (some centres undefined)	8.12 µM
Cc1cc(C(=O)CSc2nnnn2-c2ccccc2)c(C)n1CC1CCCO1 (centres undefined)	9.78 µM
CC(C)CC(NC(=O)/C(=C/c1ccco1)NC(=O)c1ccc(Br)o1)C(=O)O (centres undefined)	93.5 µM
Cc1cc(C)c(S(=O)(=O)NCC2CCC(C(=O)N3CCC4(CC3)OCCO4)CC2)c(C)c1 (centres undefined)	39.6 µM
O=c1c(O)cccc2cc(O)c(O)c(O)c12	1.03 µM
O=C(NC1=CC(=O)c2ccccc2C1=O)c1ccccc1	20.7 µM
CCN(CC)c1ccc(N=Cc2c(O)n(CCc3ccc(OC)c(OC)c3)c(=O)[nH]c2=O)cc1	44.1 µM
COc1ccc(N=C2NC(=O)/C(=C\C=C\c3ccco3)S2)cc1	2.2 µM
Oc1cccc(C=NCc2ccccc2)c1O	1.9 µM

Compound	IC50
C/C(=N\Nc1ccc([N+](=O)[O-])cc1[N+](=O)[O-])c1cc2c(ccc3ccccc32)oc1=O	2.92 µM
CCCCN1C(=O)/C(=C/C=C/c2ccco2)C(=O)NC1=S	4.61 µM
O=C(c1ccc2nc(-c3ccco3)c(-c3ccco3)nc2c1)N1CCC2(CC1)OCCO2	0.35 µM
COc1ccc2c(c1)n([O-])c1c([n+]2=O)CCC1	5.16 µM
COCCNC(=O)c1ccc(CS(=O)(=O)c2c(Cl)cccc2Cl)o1	39.9 µM
O=c1cc2c(=O)oc3cc(O)c(O)oc3c2c(O)c1O	1.68 µM
N/C(=N\N=C/c1ccc(-c2ccc(O)c(C(=O)O)c2)o1)N[N+](=O)[O-]	15.2 µM
CC(C)(Oc1ccc(Cl)cc1)C(=O)NCc1ccco1	43.1 µM
O=C(NCc1ccccn1)c1ccc2nc(-c3ccco3)c(-c3ccco3)nc2c1	0.45 µM
Cc1ccc(C(=O)Nc2ccc(O)c(C(=O)O)c2)o1	3.87 µM
NC(=O)COC(=O)c1ccc(Oc2ccccc2)cc1	98.9 µM
O=C1C(Cl)=C(Nc2ccc3cn[nH]c3c2)C(=O)c2ccccc21	3.58 µM
C/C(=C\C(=O)c1ccc(C)cc1)Nc1cccc(O)c1	53.3 µM
CCOC(=O)C1=C(N)n2c(s/c(=C\c3ccco3)c2=O)=C(C(=O)OC(C)C)C1c1ccco1 (centres undefined)	1.23 µM
Cc1cc(C(=O)CSc2nnnn2C)c(C)n1CCc1ccc(Cl)cc1	29.4 µM
O=C1S/C(=C\C=C\c2ccco2)C(=O)N1c1ccc(O)cc1	0.69 µM
Cc1ccn2cc(-c3nonc3C)cc2c1	22.5 µM
Cc1cccc(NC(=S)NC(=O)/C=C/c2ccco2)c1	17.5 µM
CC1=NN(c2cccc(C(=O)O)c2)C(=O)/C1=C\C=C\c1ccco1	2.89 µM
O=c1cc(OCc2ccccc2)cc[nH]1	3.1 µM
Cc1cnnc2ccc3c(no[n+]3[O-])c12	4.71 µM
CCCOc1ccc(Cc2nn3c(=O)/c(=C/c4ccco4)sc3nc2=O)cc1	1.5 µM
COc1cc(OC)c2c(O)c3c(c(-c4c5c(c(O)c6c(OC)cc(OC)cc46)CO[C@@H](C)[C@H]5O)c2c1)[C@H](O)[C@H](C)OC3	4.61 µM
